Measured values from patent publication US20260137706A1, “METHODS OF TREATING INFLAMMATORY DISEASES” (INTERLINE THERAPEUTICS, INC., priority 2023, published 2026).
pIC50: −log10 of the molar value. Where two headings read alike, the source gives them in different places.

What was measured:
[1] = biological target: T1, GST-RIPK2 fusion protein (human RIPK2, amino acids 1-310) (Homo sapiens, UniProt O43353); test: RIPK2 binding competition assay (TR-FRET, Tracer 199 displacement); details: for pIC50: 10 nM Tracer 199, 1 nM GST-RIPK2, read-out: RIPK2 IC50
T1 construct: made in house; host or cells: baculovirus infected Sf9 cells
T1 sequence (O43353 1-310): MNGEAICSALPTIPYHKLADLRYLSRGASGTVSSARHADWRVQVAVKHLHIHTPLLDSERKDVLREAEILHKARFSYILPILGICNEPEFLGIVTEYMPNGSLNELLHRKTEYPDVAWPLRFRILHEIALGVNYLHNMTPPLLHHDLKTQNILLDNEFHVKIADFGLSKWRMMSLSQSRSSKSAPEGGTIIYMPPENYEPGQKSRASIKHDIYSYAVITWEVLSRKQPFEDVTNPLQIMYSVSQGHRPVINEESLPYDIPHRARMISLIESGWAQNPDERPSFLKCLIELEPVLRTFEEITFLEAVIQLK
Source text: The ability of selected compounds of Formula (I) to inhibit the binding of an Alexa647-labelled ATP-competitive kinase inhibitor to a GST-RIPK2 fusion protein was quantified employing the TR-FRET-based RIPK2 binding competition assay as described in the following paragraphs.
Recombinant fusion protein of N-terminal Glutathione-S-Transferase (GST) and a fragment of human RIPK2 (amino acids 1-310 of accession number 043353), expressed in baculovirus infected Sf9 cells, purified via glutathione affinity chromatography, was used as GST-RIPK2 fusion protein. Tracer 199 from Life Technologies (catalogue no. PR9115B) was used as Alexa647-labelled ATP-competitive kinase inhibitor.
For the assay, 50 nL of a 100-fold concentrated solution of each test compound in DMSO was pipetted into either a black low volume 384-well microtiter plate or a black 1536-well microtiter plate (both Greiner Bio-One, Frickenhausen, Germany), 3 μL solution of Tracer 199 (16.7 nM=>final concentration in 5 μL assay volume is 10 nM) in aqueous assay buffer (25 mM Tris/HCl pH 7.5, 10 mM magnesium chloride (MgCl2), 5 mM β-glycerophosphate, 2.5 mM dithiothreitol (DTT), 0.5 mM ethylene glycol-bis(2-aminoethylether)-N,N,N′,N′-tetraacetic acid (EGTA), 0.5 mM sodium ortho-vanadate, 0.01% (w/v) bovine serum albumin (BSA), 0.005% (w/v) Pluronic F-127 (Sigma)) were added. Then the binding competition was started by the addition of 2 μL of a solution of the GST-RIPK2 fusion protein (2.5 nM=>final conc. in the 5 μL assay volume is 1 nM) and of Anti-GST-Tb (1.25 nM=>final conc. in the 5 μL assay volume is 0.5 nM), a Lumi4®—Tb cryptate-conjugated anti-GST antibody from PerkinElmer (catalogue no 61GSTTAH), in assay buffer.
The resulting mixture was incubated 45 min at 22° C. to allow the formation of a complex between the Tracer 199, the fusion protein and Anti-GST-Tb. Subsequently, the amount of this complex was evaluated by measurement of the resonance energy transfer from the Tb-cryptate to the Tracer 199. Therefore, the fluorescence emissions at 620 nm and 665 nm after excitation at 337 nm were measured in a TR-FRET reader, e.g. a Pherastar FS (BMG Labtechnologies, Offenburg, Germany) or a Viewlux (PerkinElmer). The ratio of the emissions at 665 nm and at 620 nm was taken as the measure of the amount of the complex. The data were normalized (assay reaction without inhibitor=0% activity, all other assay components but no GST-RIPK2 fusion protein=−100% activity).
Table A1 below lists IC50 values of selected compounds of Formula (I) measured in the RIPK2 binding competition assay.

[2] = tested on: NF-κB pathway (SEAP) in THP1-Dual cells; test: THP-1 Dual cell SEAP assay (L18-MDP stimulated); format: cell-based; details: Homo sapiens, THP1-Dual, read-out: NF-κB THP1 IC50 bin
Summary of the method: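 THP1-Dual cells (~25,000/well) were preincubated 30 min with serially diluted compounds, then stimulated with 10 ng/mL L18-MDP (final) for 20-24 h at 37 °C. Supernatant SEAP was read with QUANTI-Blue at OD 620-655 nm after 2 h. IC50 came from non-linear fits of % inhibition versus DMSO/L18-MDP controls after media-blank subtraction.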

[3] = biological target: T2, binding of His-XIAP(BIR2)-avi fusion protein to GST-RIPK2 fusion protein (RIPK2/XIAP) (Homo sapiens, UniProt O43353); test: RIPK2-XIAP binding competition PPI assay (TR-FRET); details: RIPK2/XIAP binding competition PPI assay; for Emax: Amax, read-out: PPI Amax bin
T2 construct: made in house; host or cells: baculovirus infected Sf9 cells
T2 sequence (O43353 1-310 limits assumed): as the sequence (O43353 1-310) above
Summary of the method: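 Compounds (in DMSO, 100-fold stock) incubated 120 min at 23 °C with 1 nM GST-RIPK2 (aa 1-310) and 25 nM His-XIAP(BIR2 aa 152-231)-avi, plus anti-His-XL665 and anti-GST-Tb, in pH 7.5 Tris buffer. Read-out: 665/520 nm emission ratio. Normalized to no-inhibitor (0%) and 50 nM GSK583 (−100%); Amax binned A–D.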

SMILES	pIC50 [1]	pIC50 [2]	Emax [3]	pIC50 ([3]; read-out: PPI IC50 bin)	IC50 ([1]; RIPK2 IC50 (nM), 10 nM Tracer 199, 1 nM GST-RIPK2)	pIC50 ([3]; PPI IC50 bin)
CCCS(=O)(=O)Nc1cc(-c2cnc3cc(OC)c(C4(O)CCOCC4)cn23)cc(F)c1OC [Example 127, N-(3-fluoro-5-(6-(4-hydroxytetrahydro-2H-pyran-4-yl)-7-methoxyimidazo[1,2-a]pyridin-3-yl)-2-methoxyphenyl)propane-1-sulfonamide]	8.60 to 9.00	6.60 to 7.30	> 80%	8.60 to 9.00		
COc1cc2ncc(-c3cccc(NS(=O)(=O)C4CN(C(=O)OC(C)(C)C)C4)c3)n2cc1S(=O)(=O)C(C)(C)C [Example 155, tert-butyl 3-(N-(3-(6-(tert-butylsulfonyl)-7-methoxyimidazo[1,2-a]pyridin-3-yl)phenyl)sulfamoyl)azetidine-1-carboxylate]	< 7.70	< 6.00	> 80%	< 7.70		
COc1cc2ncc(-c3cc(F)c(OC)c(NS(=O)(=O)c4cnn(C)c4)c3)n2cc1C1(F)CCNCC1 [Example 276, N-(3-fluoro-5-(6-(4-fluoropiperidin-4-yl)-7-methoxyimidazo[1,2-a]pyridin-3-yl)-2-methoxyphenyl)-1-methyl-1H-pyrazole-4-sulfonamide]	8.60 to 9.00	6.60 to 7.30	> 80%	> 9.00		
COc1cc2ncc(-c3cnc4c(c3)NCCO4)n2cc1S(=O)(=O)C(C)(C)C [Example 82, 7-(6-(tert-butylsulfonyl)-7-methoxyimidazo[1,2-a]pyridin-3-yl)-2,3-dihydro-1H-pyrido[2,3-b][1,4]oxazine]	< 7.70	< 6.00	< 30%	< 7.70		
COc1cc2ncc(-c3ccc4c(c3)c(C)nn4C)n2cc1S(=O)(=O)C(C)(C)C [Example 101, 5-(6-(tert-butylsulfonyl)-7-methoxyimidazo[1,2-a]pyridin-3-yl)-1,3-dimethyl-1H-indazole]	7.70 to 8.60	< 6.00	< 30%	< 7.70		
C[C@H](CO)COc1cn2ncc(-c3cc(Cl)c(N)nc3F)c2cc1S(=O)(=O)C(C)(C)C [Example 200, (R)-3-((3-(6-amino-5-chloro-2-fluoropyridin-3-yl)-5-(tert-butylsulfonyl)pyrazolo [1,5-a]pyridin-6-yl)oxy)-2-methylpropan-1-ol]	> 9.00	> 7.30	> 80%	> 9.00		
CC(C)(C)S(=O)(=O)c1cn2c(-c3cc(Cl)c(N)nc3F)cnc2cc1OCC(F)(F)CN [Example 243, 5-(7-(3-amino-2,2-difluoropropoxy)-6-(tert-butylsulfonyl)imidazo [1,2-a]pyridin-3-yl)-3-chloro-6-fluoropyridin-2-amine]	8.60 to 9.00	6.60 to 7.30	> 80%	8.60 to 9.00		
COc1cc2ncc(-c3cc(F)c(N)nc3F)n2cc1C1(O)CCN(C)CC1 [Example 74, 4-(3-(6-amino-2,5-difluoropyridin-3-yl)-7-methoxyimidazo[1,2-a]pyridin-6-yl)-1-methylpiperidin-4-ol]	< 7.70	< 6.00	> 80%	< 7.70		
CC(C)(C)S(=O)(=O)c1cn2c(-c3cc4cc[nH]c4nc3F)cnc2cc1OCCO [Example 52, 2-((6-(tert-butylsulfonyl)-3-(6-fluoro-1H-pyrrolo[2,3-b]pyridin-5-yl)imidazo[1,2-a]pyridin-7-yl)oxy)ethan-1-ol]	> 9.00	> 7.30	> 80%	> 9.00		
COc1cc2ncc(-c3cc(F)c(N)nc3F)n2cc1S(=O)(=O)C1(C)CCOCC1 [Example 72, 3,6-difluoro-5-(7-methoxy-6-((4-methyltetrahydro-2H-pyran-4-yl)sulfonyl)imidazo[1,2-a]pyridin-3-yl)pyridin-2-amine]	< 7.70	< 6.00	> 80%	< 7.70		
CC(C)(C)S(=O)(=O)c1cn2c(-c3cnc4[nH]cnc4c3)cnc2cc1OCCO [Example 229, 2-((6-(tert-butylsulfonyl)-3-(3H-imidazo[4,5-b]pyridin-6-yl)imidazo[1,2-a]pyridin-7-yl)oxy)ethan-1-ol]	< 7.70	< 6.00	< 30%	< 7.70		
CN(C)C(=O)c1cc2ncc(-c3cc(F)c(N)nc3F)n2cc1S(=O)(=O)C(C)(C)C [Example 42, 3-(6-amino-2,5-difluoropyridin-3-yl)-6-(tert-butylsulfonyl)-N,N-dimethylimidazo[1,2-a]pyridine-7-carboxamide]	< 7.70	< 6.00	55 to 80%	< 7.70		
C[C@@H](CO)COc1cc2ncc(-c3cc(F)c(N)nc3F)n2cc1S(=O)(=O)C(C)(C)C [Example 175, (S)-3-((3-(6-amino-2,5-difluoropyridin-3-yl)-6-(tert-butylsulfonyl)imidazo[1,2-a]pyridin-7-yl)oxy)-2-methylpropan-1-ol]	8.60 to 9.00	6.60 to 7.30	> 80%	8.60 to 9.00		
COc1cc2ncc(-c3ccc4nc(N)sc4c3)n2cc1S(=O)(=O)C(C)(C)C [Example 95, 6-(6-(tert-butylsulfonyl)-7-methoxyimidazo[1,2-a]pyridin-3-yl)benzo[d]thiazol-2-amine]	7.70 to 8.60	< 6.00	< 30%	< 7.70		
COCCn1cc(-c2cc3ncc(-c4cc(F)c(N)nc4F)n3cc2S(=O)(=O)C(C)(C)C)cn1 [Example 23, 5-(6-(tert-butylsulfonyl)-7-(1-(2-methoxyethyl)-1H-pyrazol-4-yl)imidazo[1,2-a]pyridin-3-yl)-3,6-difluoropyridin-2-amine]	7.70 to 8.60	6.00 to 6.60	> 80%	7.70 to 8.60		
CC(C)(C)S(=O)(=O)c1cn2c(-c3cc(Cl)c(N)nc3F)cnc2cc1NCCO [Example 256, 2-((3-(6-amino-5-chloro-2-fluoropyridin-3-yl)-6-(tert-butylsulfonyl)imidazo [1,2-a]pyridin-7-yl)amino)ethan-1-ol]	8.60 to 9.00	> 7.30	> 80%	> 9.00		
C[C@H](CO)Oc1cc2ncc(-c3cc(F)c(N)nc3F)n2cc1S(=O)(=O)C(C)(C)C [Example 172, (R)-2-((3-(6-amino-2,5-difluoropyridin-3-yl)-6-(tert-butylsulfonyl)imidazo[1,2-a]pyridin-7-yl)oxy)propan-1-ol]		6.00 to 6.60	> 80%		2.5 to 20 nM	7.70 to 8.60
COc1cc2ncc(-c3cccc(NS(=O)(=O)C4CCN(C(=O)OC(C)(C)C)CC4)c3)n2cc1S(=O)(=O)C(C)(C)C [Example 157, tert-butyl 4-(N-(3-(6-(tert-butylsulfonyl)-7-methoxyimidazo[1,2-a]pyridin-3-yl)phenyl)sulfamoyl)piperidine-1-carboxylate]	< 7.70	< 6.00	55 to 80%	< 7.70		
COc1cc2ncc(-c3cccc(NS(=O)(=O)C4(C)CC4)c3)n2cc1S(=O)(=O)C(C)(C)C [Example 149, N-(3-(6-(tert-butylsulfonyl)-7-methoxyimidazo[1,2-a]pyridin-3-yl)phenyl)-1-methylcyclopropane-1-sulfonamide]	7.70 to 8.60	< 6.00	> 80%	7.70 to 8.60		
